Series [1] concerns Human colorectal adenocarcinoma cells HCT116-MTAP-KO. Nature of the series: Mouse xenograft tumor pharmacodynamic model, HCT116-MTAP-KO. The class given is in vivo. The note with it: PO 200 mg/kg once a day, 28 days of administration. The method, then: (§1) In this example, the in vivo efficacy of the compound in a mouse xenograft tumor model after intragastric (PO) administration was tested.
Human colorectal adenocarcinoma cells HCT116-MTAP-KO were cultured in monolayer in vitro under the condition of McCoy's 5A medium containing 10% fetal bovine serum and 1% penicillin and streptomycin, and the culture was carried out at 37° C. with 5% CO2. The cells were digested with trypsin three times a week for passaging. When the saturation degree of the cells was 80-90%, the cells were collected, counted and inoculated. 0.1 mL (5×10^6 cells) of HCT116-MTAP-KO cells were subcutaneously inoculated on the right back of each mouse. On day 16 after inoculation of the cells, the mean tumor volume reached 154 mm^3. The mice were randomly grouped for administration and intragastrically dosed once daily. Changes in body weight and tumor volume were recorded. After a certain number of days of administration, the experiment was ended. Tumor volume changes and mouse body weight changes were counted and analyzed. AG270 (CAS: 2201056-66-6) was the positive control compound.

In series [2] the test system is Human pancreatic cancer cells KP-4. Nature of the series: Mouse xenograft tumor pharmacodynamic model, KP-4. The class given is in vivo. To be noted: KP-4 xenograft, PO 200 mg/kg once a day, 29 days of administration. Here is the method:
as §1
Human pancreatic cancer cells KP-4 were cultured in monolayer in vitro under the condition of 1640 medium containing […] and […] and streptomycin, and the culture was carried out at 37° C. with 5% CO2. The cells were digested with trypsin three times a week for passaging. When the saturation degree of the cells was 80-90%, the cells were collected, counted and inoculated. 0.1 mL (5×10^6 cells) of KP-4 cells were subcutaneously inoculated on the right back of each mouse. On day 34 after inoculation of the cells, the mean tumor volume reached 154 mm^3. The mice were randomly grouped for administration and intragastrically dosed once daily. Changes in body weight and tumor volume were recorded. After 29 days of administration, the experiment was ended. Tumor volume changes and mouse body weight changes were counted and analyzed. AG270 (CAS: 2201056-66-6) was the positive control compound.

The subject of series [3] is HCT116-MTAP-knockout (−/−) cell strain. Nature of the series: Tumor cell proliferation inhibition assay (CellTiter-Glo), HCT116-MTAP-knockout (-/-). The class given is cell-based. The note with it: Homo sapiens, 120 h, HCT116-MTAP-knockout (−/−) cells, 5-day treatment. The essentials:
(§2)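 Ten-point compound titration (1:3, highest 10 μM) started 24 h after plating, DMSO group included; cultures kept 5 days at 37° C. with 5% CO2 before CellTiter-Glo ATP readout of growth inhibition.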

Series [4] concerns the target MAT2A recombinant protein (Homo sapiens, UniProt P31153). Nature of the series: MAT2A inhibitory activity (malachite green colorimetric enzyme assay). The class given is biochemical. The essentials:
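Compounds tested over 10 points, 3-fold dilutions, top final concentration 1000 nM. Enzyme reaction: MAT2A, L-methionine, ATP, room temperature, 60 min, in HEPES pH 7.5 buffer with KCl, MgCl2 and DTT; inorganic phosphate read colorimetrically (malachite green, A630). Inhibition vs log concentration fitted for IC50.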

A short description of series [5]: Saturation solubility of samples in FaSSIF solution. The note with it: FaSSIF pH 6.5, room temperature overnight. The class given is physicochemical. Here is the method:
About 0.21 g of sodium hydroxide, about 2.24 g of sodium dihydrogen phosphate dihydrate, and 3.09 g of sodium chloride were weighed out and dissolved in 500 mL of water, and then the pH was adjusted to 6.5 with 1 N sodium hydroxide or 1 N hydrochloric acid. 112 mg of FaSSIF solid was weighed out and placed in a 50 mL volumetric flask, and the above buffer was added for dissolution, diluted to volume, mixed well, and left to stand at room temperature for 2 h or more.
• Test sample: about 1 mg of the test sample was taken, and 1 mL of FaSSIF solution was added. The mixture was stirred at room temperature overnight and centrifuged, and the supernatant was collected and injected for analysis. • Control substance solution: about 1.5 mg of the test sample was precisely weighed out and placed in a 50 mL volumetric flask, and DMF was added for dissolution, diluted to volume, and mixed well.
• Mobile phase A: 1000 mL of purified water was accurately weighed out, 1 mL of formic acid was added, and the mixture was mixed well and degassed with ultrasonic. • Mobile phase B: acetonitrile
The peak of the main component of the control substance and the peak of the test substance consistent with the retention time of the peak of the main component of the control substance were integrated, and the concentration thereof in the FaSSIF solution was calculated according to external standard method.

The subject of series [6] is HCT116-MTAP wild-type (+/+)-cell strain. Nature of the series: Tumor cell proliferation inhibition assay (CellTiter-Glo), HCT116-MTAP wild-type (+/+). The class given is cell-based. To be noted: Homo sapiens, 120 h, HCT116-MTAP wild-type (+/+) cells, 5-day treatment. Summed up:
as §2

Where two headings read alike, the source gives them in different places.

MAT2A recombinant protein, sequence (P31153 whole entry): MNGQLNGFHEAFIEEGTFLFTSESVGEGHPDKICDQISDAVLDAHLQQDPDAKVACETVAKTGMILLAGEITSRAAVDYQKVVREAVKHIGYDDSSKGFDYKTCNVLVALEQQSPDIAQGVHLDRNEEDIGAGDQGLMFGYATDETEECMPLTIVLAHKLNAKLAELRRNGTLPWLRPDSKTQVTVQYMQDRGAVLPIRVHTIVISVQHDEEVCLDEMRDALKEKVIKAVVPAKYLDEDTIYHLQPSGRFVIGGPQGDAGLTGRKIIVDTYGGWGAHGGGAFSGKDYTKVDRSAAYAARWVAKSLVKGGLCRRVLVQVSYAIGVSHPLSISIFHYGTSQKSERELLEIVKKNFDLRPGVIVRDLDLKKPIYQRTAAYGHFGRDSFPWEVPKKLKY

Take AG270 [reference compound]: the figures for the “Tumor growth inhibition percentage (TGI)” value in series [1] and in series [2] were “once a day TGI = 33.82%” and “once a day TGI = 57.48%”, respectively.
As to `Cn1cc2c(n1)c(=O)n(-c1ccc(OC(F)F)cc1)c1nc(C(F)(F)F)ccc21` [Compound B188], the IC50 was at least 2000 nM in series [3] (IC50 score, read-out: Tumor cell 5-day relative growth inhibition (HCT116-MTAP−/−) (nM), score); above 10000 nM in series [3] (IC50 value, read-out: Tumor cell 5-day relative growth inhibition (HCT116-MTAP−/−)); below 100 nM in series [4] (IC50 score class, read-out: MAT2A Inhibition (score)); 99.4 nM in series [4] (read-out: MAT2A Inhibition); at least 2000 nM in series [6] (IC50 score, read-out: Tumor cell 5-day relative growth inhibition (HCT116-MTAP+/+) (nM), score); above 10000 nM in series [6] (IC50 value, read-out: Tumor cell 5-day relative growth inhibition (HCT116-MTAP+/+)). In addition, the “FaSSIF (pH = 6.5) (μg/mL)” value in series [5] turned out to be 7.4 μg/mL.

The values above are taken from US20240391923A1, “METHIONINE ADENOSYLTRANSFERASE 2A INHIBITOR FOR TREATING MTAP DELETION-TYPE CANCER” (SUZHOU GENHOUSE BIO CO., LTD., priority 2022, published 2024).
